The test system of data set [1] is COLO 205. Briefly: Cytotoxicity against human COLO 205 cells incubated for 48 hrs by SRB assay. It counts as functional, cell-based. The settings on record: COLO 205, 48 h.
The nature of data set [2]: Stability in human plasma assessed as half life by RP-HPLC analysis. The class given is ADME, cell-free.
The subject of data set [3] is HCT-116. Briefly: Cytotoxicity against human HCT-116 cells incubated for 48 hrs by SRB assay. It counts as functional, cell-based. The settings on record: HCT-116, 48 h.
Data set [4] can be described thus: Antitumor activity against AOM/DSS-induced orthotopic CRC BALB/c mouse model assessed as tumor growth inhibition at 20 mg/kg, iv administered once every 2 days for 2 weeks in presence of SGLT inhibitor by dissecting microscopic analysis relative to control. It counts as functional, Colorectal cancer cell. Also on record: scale not given: the % may be the effect or the level left.

A short description of data set [5]: Toxicity in AOM/DSS-induced orthotopic CRC BALB/c mouse model assessed as lesions in lung at 20 to 40 mg/kg, iv administered once every 2 days for 2 weeks by H&E staining based analysis. The class given is organism-based. The settings on record: in vivo, 336 h, dose 20-40 mg/kg.
Data set [6] in a line: Antitumor activity against AOM/DSS-induced orthotopic CRC BALB/c mouse model assessed as tumor growth inhibition at 40 mg/kg, iv administered once every 2 days for 2 weeks in presence of SGLT inhibitor by dissecting microscopic analysis relative to control. The class given is functional, Colorectal cancer cell. Also on record: scale not given: the % may be the effect or the level left.

A short description of data set [7]: Toxicity in AOM/DSS-induced orthotopic CRC BALB/c mouse model assessed as lesions in spleen at 20 to 40 mg/kg, iv administered once every 2 days for 2 weeks by H&E staining based analysis. The class given is organism-based. The conditions noted are these: in vivo, 336 h, dose 20-40 mg/kg.
Data set [8] in a line: Drug uptake in human COLO 205 cells assessed as drug internalization in presence of 4.5 g/L glucose by fluorescence based assay. The class given is ADME, cell-based.
Data set [9] can be described thus: Toxicity in AOM/DSS-induced orthotopic CRC BALB/c mouse model assessed as lesions in heart at 20 to 40 mg/kg, iv administered once every 2 days for 2 weeks by H&E staining based analysis. The class given is organism-based. The settings on record: in vivo, 336 h, dose 20-40 mg/kg.
The test system of data set [10] is HT-29. Briefly: Cytotoxicity against human HT-29 cells incubated for 48 hrs by SRB assay. The conditions noted are these: HT-29, 48 h. It counts as functional, cell-based.
Data set [11] in a line: Toxicity in AOM/DSS-induced orthotopic CRC BALB/c mouse model assessed as lesions in liver at 20 to 40 mg/kg, iv administered once every 2 days for 2 weeks by H&E staining based analysis. The class given is organism-based. The conditions noted are these: in vivo, 336 h, dose 20-40 mg/kg.
Data set [12] in a line: Toxicity in AOM/DSS-induced orthotopic CRC BALB/c mouse model assessed as lesions in kidney at 20 to 40 mg/kg, iv administered once every 2 days for 2 weeks by H&E staining based analysis. The class given is organism-based. The settings on record: in vivo, 336 h, dose 20-40 mg/kg.
Data set [13] in a line: Toxicity in AOM/DSS-induced orthotopic CRC BALB/c mouse model assessed as lesions in stomach at 20 to 40 mg/kg, iv administered once every 2 days for 2 weeks by H&E staining based analysis. The class given is organism-based. The conditions noted are these: in vivo, 336 h, dose 20-40 mg/kg.
Data set [14] can be described thus: Stability in human plasma assessed as formation of carboxylate product measured for 72 hrs by RP-HPLC analysis. The class given is ADME, cell-free.
Data set [15] in a line: Toxicity in AOM/DSS-induced orthotopic CRC BALB/c mouse model assessed as body weight loss at 40 mg/kg, iv administered once every 2 days for 2 weeks. The class given is organism-based. The settings on record: in vivo, 336 h.
A short description of data set [16]: Prodrug conversion in intestine of BALB/c mouse assessed as SN38 release at 20 mg/kg, ip measured after 4 hrs by UHPLC-MS/MS analysis. It counts as ADME, organism-based. The settings on record: in vivo.
Data set [17] in a line: Prodrug conversion in spleen of BALB/c mouse assessed as SN38 release at 20 mg/kg, ip measured after 4 hrs by UHPLC-MS/MS analysis. It counts as ADME, organism-based. The settings on record: in vivo.
Another data set relates to Colorectal cancer cell. Kind of data set: Antitumor activity against AOM/DSS-induced orthotopic CRC BALB/c mouse model assessed as reduction in tumor area at 20 mg/kg, ip administered every other day for 2 weeks by dissecting microscopic analysis. It counts as functional, organism-based.
Data set [18] can be described thus: Prodrug conversion in brain of BALB/c mouse assessed as SN38 release at 20 mg/kg, ip measured after 4 hrs by UHPLC-MS/MS analysis. It counts as ADME, organism-based. The conditions noted are these: in vivo.
Data set [19] can be described thus: Prodrug conversion in tumor of BALB/c mouse assessed as SN38 release at 20 mg/kg, ip measured after 4 hrs by UHPLC-MS/MS analysis. The class given is ADME, organism-based, Neoplasm. The settings on record: in vivo.
A short description of data set [20]: Biodistribution in colorectal tumor site of BALB/c mouse at 20 mg/kg, ip measured after 4 hrs by UHPLC-MS/MS analysis. It counts as ADME, organism-based, Neoplasm. The settings on record: in vivo.
Data set [21] can be described thus: Prodrug conversion in kidney of BALB/c mouse assessed as SN38 release at 20 mg/kg, ip measured after 4 hrs by UHPLC-MS/MS analysis. It counts as ADME, organism-based. The settings on record: in vivo.
A short description of data set [22]: Toxicity in AOM/DSS-induced orthotopic CRC BALB/c mouse model assessed as body weight loss at 20 mg/kg, ip administered every other day for 2 weeks. The class given is organism-based. The settings on record: in vivo, 336 h.
Data set [23] is described as follows: Prodrug conversion in lung of BALB/c mouse assessed as SN38 release at 20 mg/kg, ip measured after 4 hrs by UHPLC-MS/MS analysis. It counts as ADME, organism-based. The conditions noted are these: in vivo.
The nature of data set [24]: Biodistribution in gastrointestinal tract of BALB/c mouse at 20 mg/kg, ip measured after 4 hrs by UHPLC-MS/MS analysis. It counts as ADME, organism-based. The conditions noted are these: in vivo.
Data set [25] is described as follows: Drug uptake in plasma of BALB/c mouse at 20 mg/kg, ip measured after 3 hrs by UHPLC-MS/MS analysis. It counts as ADME, organism-based. The settings on record: in vivo.
The nature of data set [26]: Prodrug conversion in heart of BALB/c mouse assessed as SN38 release at 20 mg/kg, ip measured after 4 hrs by UHPLC-MS/MS analysis. It counts as ADME, organism-based. The settings on record: in vivo.
Data set [27] is described as follows: Prodrug conversion in stomach of BALB/c mouse assessed as SN38 release at 20 mg/kg, ip measured after 4 hrs by UHPLC-MS/MS analysis. The class given is ADME, organism-based. The conditions noted are these: in vivo.
Data set [28] can be described thus: Prodrug conversion in liver of BALB/c mouse assessed as SN38 release at 20 mg/kg, ip measured after 4 hrs by UHPLC-MS/MS analysis. It counts as ADME, organism-based. The settings on record: in vivo.
For data set [29], the system named is COLO 205. Kind of data set: Cytotoxicity against human COLO 205 cells incubated for 48 hrs in presence of SN38 by SRB assay. The class given is functional, cell-based. The settings on record: COLO 205, 48 h.
The nature of data set [30]: Toxicity in AOM/DSS-induced orthotopic CRC BALB/c mouse model assessed as lesions in lung at 15 mg/kg, iv administered once every 2 days for 2 weeks by H&E staining based analysis. The class given is organism-based. The settings on record: in vivo, 336 h.
A short description of data set [31]: Toxicity in AOM/DSS-induced orthotopic CRC BALB/c mouse model assessed as body weight loss at 15 mg/kg, iv administered once every 2 days for 2 weeks. The class given is organism-based. The conditions noted are these: in vivo, 336 h.
Data set [32] is described as follows: Toxicity in AOM/DSS-induced orthotopic CRC BALB/c mouse model assessed as lesions in heart at 15 mg/kg, iv administered once every 2 days for 2 weeks by H&E staining based analysis. The class given is organism-based. The conditions noted are these: in vivo, 336 h.
Data set [33] can be described thus: Toxicity in AOM/DSS-induced orthotopic CRC BALB/c mouse model assessed as lesions in spleen at 15 mg/kg, iv administered once every 2 days for 2 weeks by H&E staining based analysis. The class given is organism-based. The conditions noted are these: in vivo, 336 h.
Data set [34] in a line: Toxicity in AOM/DSS-induced orthotopic CRC BALB/c mouse model assessed as lesions in liver at 15 mg/kg, iv administered once every 2 days for 2 weeks by H&E staining based analysis. It counts as organism-based. The conditions noted are these: in vivo, 336 h.
Data set [35] is described as follows: Toxicity in AOM/DSS-induced orthotopic CRC BALB/c mouse model assessed as lesions in kidney at 15 mg/kg, iv administered once every 2 days for 2 weeks by H&E staining based analysis. It counts as organism-based. The conditions noted are these: in vivo, 336 h.
The subject of data set [36] is HCT-116. Kind of data set: Cytotoxicity against human HCT-116 cells incubated for 48 hrs in presence of SN38 by SRB assay. It counts as functional, cell-based. The conditions noted are these: HCT-116, 48 h.
A short description of data set [37]: Toxicity in AOM/DSS-induced orthotopic CRC BALB/c mouse model assessed as lesions in stomach at 15 mg/kg, iv administered once every 2 days for 2 weeks by H&E staining based analysis. The class given is organism-based. The settings on record: in vivo, 336 h.
Data set [38] relates to HT-29. Briefly: Cytotoxicity against human HT-29 cells incubated for 48 hrs in presence of SN38 by SRB assay. The class given is functional, cell-based. The conditions noted are these: HT-29, 48 h.

Activity calls are given as the source filed them. No cut-off for these calls is given here.

Turning to `CCc1c2c(nc3ccc(OCc4ccc(NC(=O)[C@H](CCCNC(N)=O)NC(=O)[C@@H](NC(=O)CCCCN5C(=O)CC(SCCOCCOCCOc6cc(O)c(C(=O)CCc7ccc(O)cc7)c(O[C@@H]7O[C@H](CO)[C@@H](O)[C@H](O)[C@H]7O)c6)C5=O)C(C)C)cc4)cc13)-c1cc3c(c(=O)n1C2)COC(=O)[C@]3(O)CC` (some centres not stated), the values for the half-maximal inhibitory concentration (IC50) with COLO 205 [1], in the data set with HCT-116 [3] and in the data set with HT-29 [10] were 15400 nM, 3250 nM and greater than 100000 nM, respectively. The half-life in data set [2] is 36 h. Further, the Activity is listed as 45% in data set [4]; “Non-Toxic” in data set [5]; 55% in data set [6]; “Non-Toxic” in data set [7]; “Non-Toxic” in [9]; “Non-Toxic” in data set [11]. Besides, the Activity result in [12], in data set [13] and in [15] was “Non-Toxic” in each case. The Drug uptake entry in data set [8] is reported as “Active”. In data set [14], the Stability entry is “Stable”.
Regarding `CCc1c2c(nc3ccc(OC(=O)OCCSSCCOCCOCCOc4cc(O)c(C(=O)CCc5ccc(O)cc5)c(O)c4)cc13)-c1cc3c(c(=O)n1C2)COC(=O)[C@]3(O)CC`, the Drug metabolism result in data set [16], in data set [17], in data set [18], in data set [19], in [21] and in data set [23] was “Metabolite_Detected” each time. Besides, the Drug metabolism entry in [26], in data set [27] and in data set [28] was “Metabolite_Detected” in each case. Also, the IC50 in the data set on COLO 205 [1] came out at 570 nM; with HCT-116 [3], 34.1 nM; in the data set on HT-29 [10] it was 310 nM. Further, in data set [2], the half-life turned out to be 0.833 h. Besides, in the data set with Colorectal cancer cell, the result was Active. In addition, the Drug uptake result in data set [20] is “Active”; in [8] it was “Active”; in data set [24], “Active”; in [25], “Not Active”. Besides, the Activity entry in [22] is listed as “Non-Toxic”.
For `O=C(CCc1ccc(O)cc1)c1c(O)cc(OCCOCCOCCS)cc1O[C@@H]1O[C@H](CO)[C@@H](O)[C@H](O)[C@H]1O`, the concentration for half-maximal inhibition (IC50) was greater than 100000 nM with COLO 205 [1]; greater than 100000 nM in the data set with HCT-116 [3]; 140 nM with COLO 205 [29]; 45.4 nM with HCT-116 [36]; 330 nM in the data set on HT-29 [38]; greater than 100000 nM with HT-29 [10]. The Activity entry in data set [30], in data set [31], in data set [32], in data set [33], in data set [34] and in [35] was “Non-Toxic” each time. For the same compound, the Activity entry in data set [37] was “Non-Toxic”.
